Some test systems named below: KM12; SK-OV-3; OVCAR-3; MCF7; HOP-92; SF-539; M14; Malme-3M; SF-268; HCT-15; T47D; NCI-H460; SK-MEL-2; HCC 2998; RXF 393; LOX IMVI; A549; OVCAR-8; HL-60; SR.
Common to all, as to assay: DTP human tumour cell line panel, 48 h

Usually GI50 stands for the concentration that inhibits growth by half.

Structures are written as SMILES.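 These data come from cells grown in 96-well plates and exposed to compound for 48 hours at five concentrations. At the GI50, growth is halved.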 Active and inactive are the calls of the source. Cut-off read from the data, not from the text of the source: active = GI50 up to about 1.1 µM and inactive = higher. Some results are limits rather than exact numbers.

For the molecule `CN(C)S(=O)(=O)n1cnc(CO)c1`, the GI50 with KM12, in the assay on SK-OV-3, with OVCAR-3, in the assay on MCF7, in the assay with HOP-92 and in the assay with SF-539 was > 100 µM (inactive) each time. Moreover, the GI50 was > 100 µM (inactive) in the assay on M14; > 100 µM (inactive) in the assay on Malme-3M; > 100 µM (inactive) with SF-268; above 100 µM with HCT-15; > 100 µM (inactive) with T47D; > 100 µM (inactive) with NCI-H460. For the same molecule, the GI50 in the assay with SK-MEL-2, with HCC 2998, in the assay on RXF 393, in the assay with LOX IMVI and in the assay on A549 was > 100 µM (inactive) in each case.
As to `CC(C)(C)C(=O)N1CCN(C=O)C1=S`, the GI50 in the assay with KM12 was 75.9 µM (inactive); with SK-OV-3, > 100 µM (inactive); in the assay with OVCAR-3, 38.2 µM (inactive); in the assay on OVCAR-8, 36.5 µM (inactive); in the assay with MCF7, 15.6 µM (inactive); with HOP-92, 16.8 µM (inactive). Besides, the GI50 is > 100 µM (inactive) in the assay with SF-539; 31 µM (inactive) in the assay on M14; 61.4 µM (inactive) with Malme-3M; 80.4 µM (inactive) in the assay with SF-268; 53.2 µM in the assay with HCT-15; 34 µM (inactive) in the assay with T47D. The GI50 was > 100 µM (inactive) in the assay on NCI-H460; > 100 µM (inactive) in the assay on SK-MEL-2; 64.9 µM (inactive) with HCC 2998; 24.6 µM (inactive) with RXF 393; 47.3 µM (inactive) with HL-60; 34.2 µM (inactive) in the assay on LOX IMVI. In the assay with A549, the GI50 is 27.5 µM (inactive).
On to `COc1ccc(Oc2nc(C#CC(C)(C)O)nc(Oc3ccc(OC)cc3)n2)cc1`, for which the GI50 in the assay with KM12 is 14 µM (inactive); with SK-OV-3 it was 19.2 µM (inactive); in the assay with OVCAR-3, 2.1 µM (inactive); with OVCAR-8 it was 3.76 µM (inactive); in the assay on MCF7, 1.51 µM (inactive); in the assay on SF-539 it was 7.08 µM (inactive). Further, the GI50 with M14 is 2.2 µM (inactive); in the assay on Malme-3M, 16.2 µM (inactive); in the assay with SF-268 it was 9.08 µM (inactive); with HCT-15, 1.34 µM; with T47D it was 4.53 µM (inactive); in the assay with NCI-H460, 16.7 µM (inactive). The GI50 was 6.73 µM (inactive) with SK-MEL-2; 0.625 µM (active) in the assay on SR; 1.39 µM (inactive) in the assay with RXF 393; 1.07 µM (active) in the assay on HL-60; 1.39 µM (inactive) with LOX IMVI; 15.1 µM (inactive) in the assay with A549.
On to `S=c1[nH]nc(COc2ccc3c(c2)CCCC3)n1/N=C/c1ccc(Cl)cc1`, for which the GI50 in the assay with KM12 is 16.3 µM (inactive); with SK-OV-3, 18.1 µM (inactive); with OVCAR-3 it was 16 µM (inactive); in the assay with OVCAR-8, 16.6 µM (inactive); with MCF7, 11.8 µM (inactive); in the assay with HOP-92, 14.7 µM (inactive). In addition, the GI50 is 17.6 µM (inactive) in the assay with SF-539; 18 µM (inactive) in the assay on M14; 17 µM (inactive) in the assay with Malme-3M; 17.9 µM (inactive) in the assay with SF-268; 20.4 µM with HCT-15; 12.1 µM (inactive) in the assay on T47D. Besides, the GI50 is 15.8 µM (inactive) with NCI-H460; 18.2 µM (inactive) in the assay on SK-MEL-2; 14.4 µM (inactive) in the assay on RXF 393; 18.2 µM (inactive) in the assay with HL-60; 20.2 µM (inactive) in the assay on LOX IMVI; 18.7 µM (inactive) in the assay on A549.
On to `CCP(=O)(CC)C(Cl)(Cl)C(=O)NC`, for which the GI50 in the assay on SK-OV-3 is > 100 µM (inactive); in the assay with OVCAR-3, > 100 µM (inactive); in the assay with OVCAR-8 it was > 100 µM (inactive); in the assay on HOP-92, > 100 µM (inactive); in the assay on M14 it was > 100 µM (inactive); in the assay with HCT-15 it was above 100 µM. Also, the GI50 in the assay on T47D, in the assay with NCI-H460, in the assay on SK-MEL-2, in the assay on HCC 2998, with SR and in the assay on HL-60 was > 100 µM (inactive) each time. In addition, the GI50 in the assay with LOX IMVI and with A549 was > 100 µM (inactive) each time.
`CCOC(=O)CCC(NC(=O)OCc1ccccc1)C(=O)NC(CCC(=O)OCC)C(=O)NC(CCC(=O)OCC)C(=O)NC(CCC(=O)OCC)C(=O)NC(CCC(=O)OCC)C(=O)NC(CCC(=O)OCC)C(=O)NC(CCC(=O)OCC)C(=O)OCC` (configuration not stated): the GI50 in the assay with OVCAR-3 is 86.9 µM (inactive); in the assay with OVCAR-8 it was > 100 µM (inactive); with MCF7, > 100 µM (inactive); with M14 it was > 100 µM (inactive); with Malme-3M, 90.6 µM (inactive); in the assay on SF-268, > 100 µM (inactive). Further, the GI50 in the assay with HCT-15 is above 100 µM; with T47D it was > 100 µM (inactive); in the assay with NCI-H460 it was > 100 µM (inactive); in the assay with SK-MEL-2, > 100 µM (inactive); with HCC 2998, 26.1 µM (inactive); in the assay on SR, 70.8 µM (inactive). Further, the GI50 in the assay with HL-60, in the assay on LOX IMVI and in the assay with A549 was > 100 µM (inactive) each time.
Turning to `CN1CCC2(CC1)C(=O)N(N1CCCCCC1)C(=O)N2c1ccccc1`, the GI50 was > 100 µM (inactive) with KM12; > 100 µM (inactive) in the assay with SK-OV-3; > 100 µM (inactive) in the assay with OVCAR-3; 78 µM (inactive) in the assay with OVCAR-8; > 100 µM (inactive) in the assay with MCF7; > 100 µM (inactive) in the assay on SF-539. Moreover, the GI50 is > 100 µM (inactive) with M14; > 100 µM (inactive) with Malme-3M; > 100 µM (inactive) in the assay on SF-268; above 100 µM in the assay on HCT-15; > 100 µM (inactive) with T47D; > 100 µM (inactive) in the assay with NCI-H460. Also, the GI50 was > 100 µM (inactive) with SK-MEL-2; > 100 µM (inactive) with HCC 2998; > 100 µM (inactive) in the assay on SR; 31.3 µM (inactive) with RXF 393; > 100 µM (inactive) in the assay on HL-60; > 100 µM (inactive) in the assay with LOX IMVI. The GI50 in the assay with A549 is > 100 µM (inactive).
On to `Cc1c2ccccc2nc2[nH]c3ccncc3c12`, for which the GI50 with KM12 was 26.6 µM (inactive); with SK-OV-3 it was 50 µM (inactive); in the assay on OVCAR-3 it was 30.3 µM (inactive); with OVCAR-8, 31.3 µM (inactive); with HOP-92, 33 µM (inactive); with SF-539, 36.8 µM (inactive). For the same molecule, the GI50 in the assay with M14 was 32.8 µM (inactive); in the assay on Malme-3M, 31 µM (inactive); in the assay with SF-268, 11.1 µM (inactive); in the assay on HCT-15, 26.5 µM; with T47D, 33.7 µM (inactive); with NCI-H460, 15.4 µM (inactive). The GI50 was 40.7 µM (inactive) in the assay with SK-MEL-2; 26.9 µM (inactive) in the assay with SR; 26.9 µM (inactive) in the assay on HL-60; 20.6 µM (inactive) with LOX IMVI; 30.7 µM (inactive) in the assay with A549.
As for `C/C(=C/C(=O)N(C)c1ccccc1Cl)O[Si](C(C)C)(C(C)C)C(C)C`, the GI50 is 32.4 µM (inactive) with KM12; 34.2 µM (inactive) in the assay with SK-OV-3; 18.2 µM (inactive) with OVCAR-3; 20.7 µM (inactive) in the assay with OVCAR-8; 16.1 µM (inactive) with HOP-92; 21.3 µM (inactive) in the assay on SF-539. Moreover, the GI50 was 27.5 µM (inactive) with M14; 23.9 µM (inactive) with Malme-3M; 21.8 µM (inactive) in the assay with SF-268; 18.2 µM in the assay on HCT-15; 31.3 µM (inactive) in the assay with T47D; 26.9 µM (inactive) in the assay with NCI-H460. The values for the GI50 in the assay with RXF 393, with LOX IMVI and in the assay with A549 were 17.3 µM (inactive), 18.7 µM (inactive) and 36.1 µM (inactive), respectively.
As to `O=c1[nH]nc(NNc2ccccc2)c2nnn(C3CCCCC3)c12`, the GI50 is > 100 µM (inactive) with KM12; > 100 µM (inactive) in the assay with OVCAR-3; 88.1 µM (inactive) in the assay on OVCAR-8; > 100 µM (inactive) in the assay on MCF7; > 100 µM (inactive) in the assay on HOP-92; > 100 µM (inactive) in the assay on M14. Besides, the GI50 with Malme-3M is > 100 µM (inactive); with HCT-15 it was 96.2 µM; in the assay on NCI-H460, 77.6 µM (inactive); in the assay on SK-MEL-2, > 100 µM (inactive); in the assay with HCC 2998, > 100 µM (inactive); with SR it was > 100 µM (inactive). In addition, the GI50 in the assay on HL-60, with LOX IMVI and in the assay on A549 was > 100 µM (inactive) each time.
`O=c1c(-c2ccccc2)c(SCCCN2CCN(c3cccc(Cl)c3)CC2)n(-c2ccccc2)c(=S)n1-c1ccccc1`: the GI50 is 46.5 µM (inactive) in the assay with KM12; > 100 µM (inactive) with SK-OV-3; > 100 µM (inactive) in the assay on OVCAR-3; > 100 µM (inactive) in the assay on OVCAR-8; > 100 µM (inactive) with MCF7; > 100 µM (inactive) in the assay with HOP-92. Also, the GI50 was > 100 µM (inactive) with SF-539; > 100 µM (inactive) with Malme-3M; above 100 µM in the assay on HCT-15; > 100 µM (inactive) in the assay with NCI-H460; > 100 µM (inactive) in the assay with SK-MEL-2; > 100 µM (inactive) with HCC 2998. Further, the GI50 in the assay with SR is 29 µM (inactive); with RXF 393 it was > 100 µM (inactive); in the assay on HL-60 it was > 100 µM (inactive); in the assay on LOX IMVI it was > 100 µM (inactive).
For `CNC(C)C(O)c1ccc2oc3cc(=O)c4ccccc4c-3nc2c1` (configuration not stated), the GI50 in the assay with KM12 is 9.84 µM (inactive); in the assay on SK-OV-3, 40.1 µM (inactive); with OVCAR-3, 11.9 µM (inactive); in the assay with OVCAR-8 it was 6.15 µM (inactive); in the assay on MCF7, 18.9 µM (inactive); with HOP-92, 94.6 µM (inactive). Moreover, the GI50 in the assay on SF-539 was 1.45 µM (inactive); in the assay on M14 it was 4.65 µM (inactive); in the assay on Malme-3M, 5.64 µM (inactive); with SF-268, 27.2 µM (inactive); with HCT-15, 4.83 µM; with T47D, 31.6 µM (inactive). Besides, the GI50 in the assay on NCI-H460 is 4.67 µM (inactive); in the assay with SK-MEL-2, 4.69 µM (inactive); in the assay with HCC 2998, 27.9 µM (inactive); in the assay with RXF 393 it was 25.8 µM (inactive); with HL-60 it was 21.8 µM (inactive); with LOX IMVI it was 4.1 µM (inactive). The GI50 in the assay with A549 is 5.13 µM (inactive).
